# Data as given in PMC11859264, “Discovery of a Novel Multitarget Analgesic Through an In Vivo-Guided Approach” (Pharmaceuticals, 2025).
# Legend:
# Adrenergic α2A = biological target: T1, Adrenergic α2A (Homo sapiens, UniProt P08913); test: Radioligand binding, [3H] Rauwolscine, Eurofins; settings: Adrenergic α2A
# T1 sequence (P08913 1-465): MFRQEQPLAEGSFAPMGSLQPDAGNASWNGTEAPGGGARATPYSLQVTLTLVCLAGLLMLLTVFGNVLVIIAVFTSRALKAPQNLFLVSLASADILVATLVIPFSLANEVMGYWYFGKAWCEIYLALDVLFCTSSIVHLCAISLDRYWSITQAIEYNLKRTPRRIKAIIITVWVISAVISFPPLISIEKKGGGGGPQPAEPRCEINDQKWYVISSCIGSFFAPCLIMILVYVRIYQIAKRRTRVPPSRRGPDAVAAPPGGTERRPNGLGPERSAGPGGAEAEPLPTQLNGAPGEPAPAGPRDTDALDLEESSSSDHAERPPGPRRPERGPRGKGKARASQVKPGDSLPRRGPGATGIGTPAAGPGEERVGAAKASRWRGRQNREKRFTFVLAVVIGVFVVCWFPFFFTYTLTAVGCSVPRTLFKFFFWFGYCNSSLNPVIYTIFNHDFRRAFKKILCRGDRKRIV
# formalin model = test: Formalin test in mice (primary in vivo screening and ED50); set-up: species or system ICR male mice; settings: mice, second phase; for % Inhibition in the second phase of the formalin model relative to vehicle control: 5 mg/kg intraperitoneal; for ED50: Mus musculus, ip, intraperitoneal, doses 0.1, 1, 5 and 10 mg/kg, read-out: ED50 in the second phase of the formalin model
# Description: For primary screening, the synthesized compounds were administered to mice via intraperitoneal injection at a dose of 5 mg/kg using the formalin model. The percentage inhibition in the second phase, relative to the vehicle control (DMSO/cremophor EL/distilled water = 10:10:80), was calculated.
# Each compound was assessed using four doses (0.1, 1, 5, and 10 mg/kg) by intraperitoneal injection.
# ICR male mice weighing 23–25 g was purchased from Samtako Korea (Osan, Republic of Korea). ICR mice were housed four per cage in a room with 12 h light–dark cycles. The temperature and relative humidity of the room were maintained at 22 ± 2 °C and 50 ± 5%, respectively. Food and water were available ad libitum. The procedures for animal testing were approved by Medifron Animal Care and Use Committees (Approval number; Medifron 2019-9). Efforts were made to minimize animal suffering and to reduce the number of animals used.
# Mice were randomly assigned to five groups (four per group) and single-dose drugs were administered by intraperitoneal injection. The formalin-induced licking paw test was modified from the method described by Dubuisson and Dennis. Each mouse was acclimated to an acrylic observation chamber for at least 30 min before the injection of formalin. Twenty microliters of 2% formalin were injected subcutaneously into the right side of the hind paw. Each mouse was then placed in an individual clear plastic observational chamber (15 × 15 × 15 cm, volume = […] or 3.375 L), and the pain response was recorded for a period of 30 min. The summation of time (in seconds) spent in licking and biting responses of the injected paw during each 5 min block was measured as an indicator of the pain response. The first period (early phase) was recorded 0–5 min after the injection of formalin, and the second period (late phase) was recorded 20–30 min after the injection. The test compound was administered intraperitoneally 30 min before the formalin injection at […]: 0.1, 1, 5, and 10 mg/kg. The vehicle was DMSO/Cremophor EL/distilled water (10/10/80). The data were expressed as the mean ± standard error of the mean (SEM). Statistical analysis was assessed by one-way analysis of variance (ANOVA) with Bonferroni’s post hoc test. Statistical significance was set at p-value < 0.05, with values of p <0.001 considered highly significant.
# Serotonin 5-HT2A = Serotonin 5-HT2A (Homo sapiens, UniProt P28223); test: Radioligand binding, [3H] Ketanserin, Eurofins; settings: Serotonin 5-HT2A
# [1] = biological target: T2, Transporter, Dopamine (DAT) (Homo sapiens, UniProt Q01959); test: Radioligand binding, [125I] RTI-55, Eurofins; settings: DAT
# T2 construct: host or cells: CHO-S cells
# Dopamine D2L = biological target: T3, Dopamine D2L (Homo sapiens, UniProt P14416); test: Radioligand binding, [3H] Spiperone, Eurofins; settings: Dopamine D2L
# T3 construct: host or cells: CHO cells
# CYP2C19 = CYP2C19 (Homo sapiens, UniProt P33261); test: Cytochrome P450 (CYP) inhibition assay; settings: microsomes, pH 7.4
# CYP3A4 = CYP3A4 (Homo sapiens, UniProt P08684); test: Cytochrome P450 (CYP) inhibition assay; settings: microsomes, pH 7.4
# CYP2C9 = CYP2C9 (Homo sapiens, UniProt P11712); test: Cytochrome P450 (CYP) inhibition assay; settings: microsomes, pH 7.4
# Chain of CYP2C9 (P11712 whole entry): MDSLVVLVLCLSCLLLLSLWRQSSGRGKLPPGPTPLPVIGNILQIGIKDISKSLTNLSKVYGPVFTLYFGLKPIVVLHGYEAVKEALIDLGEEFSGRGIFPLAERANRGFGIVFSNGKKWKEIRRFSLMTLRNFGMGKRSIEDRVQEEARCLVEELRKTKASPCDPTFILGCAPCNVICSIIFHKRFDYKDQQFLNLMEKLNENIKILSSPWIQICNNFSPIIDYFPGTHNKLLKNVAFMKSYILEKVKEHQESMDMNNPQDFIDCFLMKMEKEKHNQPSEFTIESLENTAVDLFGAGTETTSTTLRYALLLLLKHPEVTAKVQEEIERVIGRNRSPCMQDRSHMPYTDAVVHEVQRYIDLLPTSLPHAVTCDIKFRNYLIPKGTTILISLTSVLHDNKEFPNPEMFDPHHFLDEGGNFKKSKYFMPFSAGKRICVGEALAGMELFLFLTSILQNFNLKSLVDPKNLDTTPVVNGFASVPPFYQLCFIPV
# Chain of CYP3A4 (P08684 whole entry): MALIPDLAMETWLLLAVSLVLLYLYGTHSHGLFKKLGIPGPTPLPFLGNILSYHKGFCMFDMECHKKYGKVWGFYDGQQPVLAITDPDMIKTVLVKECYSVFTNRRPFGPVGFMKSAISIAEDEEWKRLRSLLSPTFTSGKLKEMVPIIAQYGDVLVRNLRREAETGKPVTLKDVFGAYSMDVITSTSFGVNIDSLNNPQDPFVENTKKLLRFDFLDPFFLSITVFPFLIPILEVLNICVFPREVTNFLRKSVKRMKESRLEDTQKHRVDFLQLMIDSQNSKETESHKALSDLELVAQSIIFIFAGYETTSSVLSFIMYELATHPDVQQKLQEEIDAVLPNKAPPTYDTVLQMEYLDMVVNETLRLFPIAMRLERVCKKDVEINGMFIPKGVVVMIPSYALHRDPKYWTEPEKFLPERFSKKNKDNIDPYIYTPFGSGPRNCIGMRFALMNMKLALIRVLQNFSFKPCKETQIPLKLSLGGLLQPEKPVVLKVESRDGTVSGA
# T2 sequence (Q01959 whole entry): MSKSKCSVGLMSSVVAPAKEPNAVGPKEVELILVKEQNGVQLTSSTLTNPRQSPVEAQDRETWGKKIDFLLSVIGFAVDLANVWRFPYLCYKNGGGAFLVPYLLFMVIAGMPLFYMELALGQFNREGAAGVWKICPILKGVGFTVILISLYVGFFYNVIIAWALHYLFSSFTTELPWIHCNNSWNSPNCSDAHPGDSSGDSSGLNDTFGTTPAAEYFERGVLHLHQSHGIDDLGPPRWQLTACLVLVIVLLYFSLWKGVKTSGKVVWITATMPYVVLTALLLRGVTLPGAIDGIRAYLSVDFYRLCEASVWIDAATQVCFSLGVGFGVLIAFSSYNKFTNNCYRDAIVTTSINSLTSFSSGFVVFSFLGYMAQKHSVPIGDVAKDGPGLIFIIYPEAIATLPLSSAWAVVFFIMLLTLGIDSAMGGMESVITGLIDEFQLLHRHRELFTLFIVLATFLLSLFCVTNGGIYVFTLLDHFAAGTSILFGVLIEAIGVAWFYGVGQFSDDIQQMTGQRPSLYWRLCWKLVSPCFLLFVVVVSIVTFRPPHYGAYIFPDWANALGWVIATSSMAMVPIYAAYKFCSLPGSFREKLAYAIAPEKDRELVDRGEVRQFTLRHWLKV
# Chain of Serotonin 5-HT2A (P28223 whole entry): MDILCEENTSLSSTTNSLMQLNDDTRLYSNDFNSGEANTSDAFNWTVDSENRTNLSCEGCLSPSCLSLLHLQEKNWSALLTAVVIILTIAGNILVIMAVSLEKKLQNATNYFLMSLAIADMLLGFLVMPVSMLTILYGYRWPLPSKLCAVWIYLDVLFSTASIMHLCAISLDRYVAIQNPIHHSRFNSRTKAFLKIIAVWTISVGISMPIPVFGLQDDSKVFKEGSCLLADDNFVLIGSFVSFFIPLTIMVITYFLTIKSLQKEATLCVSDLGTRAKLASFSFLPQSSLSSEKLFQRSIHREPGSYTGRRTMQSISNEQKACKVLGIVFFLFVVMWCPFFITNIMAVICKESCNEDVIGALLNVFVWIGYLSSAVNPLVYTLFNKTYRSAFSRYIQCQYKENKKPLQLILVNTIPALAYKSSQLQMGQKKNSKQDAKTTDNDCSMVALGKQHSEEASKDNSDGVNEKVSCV
# Chain of CYP2C19 (P33261 whole entry): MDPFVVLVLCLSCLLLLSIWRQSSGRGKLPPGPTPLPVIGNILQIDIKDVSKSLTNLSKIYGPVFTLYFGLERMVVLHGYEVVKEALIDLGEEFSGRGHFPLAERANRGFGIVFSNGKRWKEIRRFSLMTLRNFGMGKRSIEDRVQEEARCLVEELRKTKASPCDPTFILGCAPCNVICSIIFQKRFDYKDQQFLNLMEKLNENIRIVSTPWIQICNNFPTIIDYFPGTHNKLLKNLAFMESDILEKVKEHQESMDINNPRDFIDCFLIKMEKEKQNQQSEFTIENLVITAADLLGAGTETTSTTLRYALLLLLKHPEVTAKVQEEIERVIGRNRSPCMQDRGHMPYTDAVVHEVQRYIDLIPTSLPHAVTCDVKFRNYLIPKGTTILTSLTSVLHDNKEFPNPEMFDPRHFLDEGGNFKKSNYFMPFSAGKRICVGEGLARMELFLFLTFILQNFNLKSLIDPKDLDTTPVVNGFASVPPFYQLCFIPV
# T3 sequence (P14416 whole entry): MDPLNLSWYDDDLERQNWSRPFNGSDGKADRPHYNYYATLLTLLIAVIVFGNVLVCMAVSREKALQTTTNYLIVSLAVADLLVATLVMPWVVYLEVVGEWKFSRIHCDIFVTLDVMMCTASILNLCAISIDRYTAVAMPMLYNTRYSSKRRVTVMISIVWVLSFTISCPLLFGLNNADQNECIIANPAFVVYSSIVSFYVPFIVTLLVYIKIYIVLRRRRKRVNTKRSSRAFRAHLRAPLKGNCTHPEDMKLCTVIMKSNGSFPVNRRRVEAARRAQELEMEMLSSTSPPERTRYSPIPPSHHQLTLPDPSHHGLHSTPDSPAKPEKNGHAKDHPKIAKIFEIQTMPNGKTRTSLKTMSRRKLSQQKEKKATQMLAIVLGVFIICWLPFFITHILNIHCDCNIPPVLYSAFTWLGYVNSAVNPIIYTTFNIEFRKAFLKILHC
SMILES,% Inhibition in the second phase of the formalin model relative to vehicle control (formalin model) [%],other results
"COC(=O)[C@@H]1[C@H]2C[C@H]3c4[nH]c5ccccc5c4CCN3C[C@@H]2CC[C@@H]1O [Yohimbine, reference compound]",–,nH (Hill coefficient) (Adrenergic α2A): 0.88
"N#Cc1ccc2[nH]cc(C(=O)NCCN3CCN(C(=O)c4ccc(F)cc4)CC3)c2c1 [Compound 33, 5-Cyano-N-(2-(4-(4-fluorobenzoyl)piperazin-1-yl)ethyl)-1H-indole-3-carboxamide]",24.2,–
"N#Cc1ccc2[nH]cc(C(=O)NCCN3CCN(c4ccc(F)cc4)CC3)c2c1 [Compound 23, 5-Cyano-N-(2-(4-(4-fluorophenyl)piperazin-1-yl)ethyl)-1H-indole-3-carboxamide]",35.8,–
"N#Cc1ccc2[nH]cc(C(=O)NCCN3CCN(c4cccc(C(F)(F)F)c4)CC3)c2c1 [Compound 22, 5-Cyano-N-(2-(4-(3-(trifluoromethyl)phenyl)piperazin-1-yl)ethyl)-1H-indole-3-carboxamide]",–,ED50 (formalin model): 1.3 mg/kg
"N#Cc1ccc2[nH]cc(C(=O)NCCCN3CCN(c4cccc(C(F)(F)F)c4)CC3)c2c1 [Compound 38, 5-Cyano-N-(3-(4-(3-(trifluoromethyl)phenyl)piperazin-1-yl)propyl)-1H-indole-3-carboxamide]",37.1,–
"N#Cc1ccc2[nH]cc(C(=O)NCCN3CCN(c4cccc(C(F)(F)F)n4)CC3)c2c1 [Compound 26, 5-Cyano-N-(2-(4-(6-(trifluoromethyl)pyridin-2-yl)piperazin-1-yl)ethyl)-1H-indole-3-carboxamide]",48.6,–
"N#Cc1ccc2[nH]cc(C(=O)NCCCN3CCN(c4cccc(Cl)c4)CC3)c2c1 [Compound 37, N-(3-(4-(3-Chlorophenyl)piperazin-1-yl)propyl)-5-cyano-1H-indole-3-carboxamide]",–,ED50 (formalin model): 3.2 mg/kg
"N#Cc1ccc2[nH]cc(C(=O)NCCCN3CCN(c4ccc5oc(C(N)=O)cc5c4)CC3)c2c1 [Compound 46, N-(3-(4-(2-Carbamoylbenzofuran-5-yl)piperazin-1-yl)propyl)-5-cyano-1H-indole-3-carboxamide]",49.2,–
"N#Cc1ccc2[nH]cc(C(=O)NCCCN3CCN(c4ncccc4Cl)CC3)c2c1 [Compound 43, N-(3-(4-(3-Chloropyridin-2-yl)piperazin-1-yl)propyl)-5-cyano-1H-indole-3-carboxamide]",45.3,–
"N#Cc1ccc2[nH]cc(C(=O)NCCCN3CCN(c4cccc(C(F)(F)F)n4)CC3)c2c1 [Compound 42, 5-Cyano-N-(3-(4-(6-(trifluoromethyl)pyridin-2-yl)piperazin-1-yl)propyl)-1H-indole-3-carboxamide]",45.7,–
"N#Cc1ccc2[nH]cc(C(=O)NCCCN3CCN(c4ccc5ccccc5n4)CC3)c2c1 [Compound 45, 5-Cyano-N-(3-(4-(quinolin-2-yl)piperazin-1-yl)propyl)-1H-indole-3-carboxamide]",–,ED50 (formalin model): 0.93 mg/kg
"O=C(c1ccc(F)cc1)C1CCN(CCn2c(=O)[nH]c3ccccc3c2=O)CC1 [Ketanserin, reference compound]",–,nH (Hill coefficient) (Serotonin 5-HT2A): 0.99
"Fc1ccc(C(OCCN2CCN(CCCc3ccccc3)CC2)c2ccc(F)cc2)cc1 [Vanoxerine, reference compound]",–,nH (Hill coefficient) [1]: 1.01
"N#Cc1ccc2[nH]cc(C(=O)NCCCN3CCC(n4c(=O)[nH]c5cc(Cl)ccc54)CC3)c2c1 [Compound 55, N-(3-(4-(5-Chloro-2-oxo-2,3-dihydro-1H-benzo[d]imidazol-1-yl)piperidin-1-yl)propyl)-5-cyano-1H-indole-3-carboxamide]",24.0,–
"N#Cc1ccc2[nH]cc(C(=O)NCCCN3CCN(c4ccc(Cl)cc4)CC3)c2c1 [Compound 40, N-(3-(4-(4-Chlorophenyl)piperazin-1-yl)propyl)-5-cyano-1H-indole-3-carboxamide]",4.7,–
"O=C(CCCN1CCC2(CC1)C(=O)NCN2c1ccccc1)c1ccc(F)cc1 [Spiperone, reference compound]",–,nH (Hill coefficient) (Dopamine D2L): 0.71
"Cc1ccc(Sc2ccccc2N2CCN(CCNC(=O)c3c[nH]c4ccc(C#N)cc34)CC2)c(C)c1 [Compound 31, 5-Cyano-N-(2-(4-(2-((2,4-dimethylphenyl)thio)phenyl)piperazin-1-yl)ethyl)-1H-indole-3-carboxamide]",–,ED50 (formalin model): 2.66 mg/kg
"N#Cc1ccc2[nH]cc(C(=O)NCCN3CCN(C(=O)c4cccc(C(F)(F)F)c4)CC3)c2c1 [Compound 34, 5-Cyano-N-(2-(4-(3-(trifluoromethyl)benzoyl)piperazin-1-yl)ethyl)-1H-indole-3-carboxamide]",2.1,–
CC(=O)N1CCN(c2ccc(OCC3COC(Cn4ccnc4)(c4ccc(Cl)cc4Cl)O3)cc2)CC1 (stereo not drawn) [Ketoconazole],–,"inhibition at 15 min, 0.1 µM (CYP2C19): 0%; inhibition at 15 min, 0.1 µM (CYP3A4): 68%; inhibition at 15 min, 0.1 µM (CYP2C9): 3.2%"
"N#Cc1ccc2[nH]cc(C(=O)NCCN3CCN(C(=O)C4COc5ccccc5O4)CC3)c2c1 (stereo not drawn) [Compound 35, 5-Cyano-N-(2-(4-(2,3-dihydrobenzo[b][1,4]dioxine-2-carbonyl)piperazin-1-yl)ethyl)-1H-indole-3-carboxamide]",0.4,–
"N#Cc1ccc2[nH]cc(C(=O)NCCCN3CCN(c4ncccc4C(F)(F)F)CC3)c2c1 [Compound 44, 5-Cyano-N-(3-(4-(3-(trifluoromethyl)pyridin-2-yl)piperazin-1-yl)propyl)-1H-indole-3-carboxamide]",3.7,–
"NCC1(CC(=O)O)CCCCC1 [gabapentin, reference compound]",70.7,–
